Measured values from PubChem BioAssay (NCI).
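Growth conditions: 96-well plates. Treatment: test compound, 48 hours, 5 concentrations. Analysis: linear interpolation between bracketing concentrations; unreached endpoints set to highest concentration. Abbreviation: GI50, concentration required for 50% inhibition of growth. TGI denotes the concentration required for complete inhibition of growth.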

Experiments:
Test in all cases: NCI-60 cell line screen, 48 h
BT-549 breast = tested on: BT-549 breast
HL-60(TB) leukemia = tested on: HL-60(TB) leukemia
HOP-92 NSCLC = tested on: HOP-92 NSCLC
IGROV1 ovarian = tested on: IGROV1 ovarian
OVCAR-3 ovarian = tested on: OVCAR-3 ovarian
RPMI-8226 leukemia = tested on: RPMI-8226 leukemia

Compound	GI50 (BT-549 breast) [µM]	TGI (BT-549 breast) [µM]	GI50 (HL-60(TB) leukemia) [µM]	TGI (HL-60(TB) leukemia) [µM]	GI50 (HOP-92 NSCLC) [µM]	TGI (HOP-92 NSCLC) [µM]	GI50 (IGROV1 ovarian) [µM]	TGI (IGROV1 ovarian) [µM]	GI50 (OVCAR-3 ovarian) [µM]	TGI (OVCAR-3 ovarian) [µM]	GI50 (RPMI-8226 leukemia) [µM]	TGI (RPMI-8226 leukemia) [µM]
COc1cc2ncn(-c3cc(OCCc4ccccc4)c(C(N)=O)s3)c2cc1OC	> 25	> 25	> 20.2	> 25	19.6	> 25	> 25	> 25	> 25	> 25	> 25	> 25
CCc1ccccc1NC(=O)c1sc2nc3c(cc2c1N)C(=O)CCC3	27.4	> 100	0.326	43.7	–	–	15.5	> 100	0.383	16	0.782	> 30.9
O=C(Nc1ccc(CO)cc1)c1coc2ccccc2c1=O	90.7	> 100	> 100	> 100	29.4	> 100	> 100	> 100	> 100	> 100	84.8	> 100
O=C(Nc1ccc(-c2ccccc2)cc1)C1CCN(S(=O)(=O)c2ccccc2Cl)CC1	13.9	56.3	> 100	> 100	32.2	91.2	21.4	> 100	41.9	> 100	42	> 100
COc1ccc(OC)c2c(/C=C/c3ccc(N(C)C)cc3)ccnc12	–	> 10	–	3.86	–	> 10	–	> 10	–	> 10	–	–
COc1ccc(-c2c[nH]c(=S)n2-c2ccc(OC)cc2)cc1	> 50	> 50	> 50	> 50	–	–	> 50	> 50	> 50	> 50	20.4	> 50
Cc1ccc(S(=O)(=O)NCCNc2nccc(-c3c(-c4ccc(F)cc4)nc4sccn34)n2)cc1	5.83	36	–	–	–	–	3.09	> 100	–	–	–	–
NC(N)=NCCCCCNc1noc(Cc2c[nH]c3cc(Br)ccc23)n1	3.35	14.9	7.21	28.8	2.96	46.7	4.55	19.4	4.4	33.5	6.78	47.1
CCOC(=O)c1c[nH]c2oc(/C=N/N3CC(CN4CCOCC4)OC3=O)cc2c1=O (stereo not given)	–	–	–	> 100	–	> 100	–	> 100	–	> 100	–	> 100
COc1ccc(-c2ccc(/C=N/n3c(C)n[nH]c3=S)o2)c([N+](=O)[O-])c1	> 100	> 100	> 100	> 100	12.4	45.4	> 100	> 100	> 100	> 100	> 100	> 100
COc1ccc(Nc2c3ccccc3nc3occ(Cl)c23)cc1	2.05	26.2	< 0.01	0.547	0.0165	7.17	0.0634	> 77.2	< 0.01	< 0.0166	0.0145	0.571
Cc1cc2c(cc1Cl)SC(=Nc1ccc(Cl)cc1)N(S(=O)(=O)c1ccccc1)S2(=O)=O	11.1	24.5	11.7	32.7	5.39	26.1	2.55	31.7	1.55	7.11	2.67	14.7
Oc1cn(-c2ccc(Cl)cc2)nc1-c1n[nH]c(=S)n1C1CCCCC1	9.51	> 100	–	–	38.7	> 100	24.2	> 100	< 0.0456	0.424	0.248	30.9
COc1ccc(-c2oc3cc(O)c(OC)c(O)c3c(=O)c2OC)cc1O	–	–	0.0275	0.212	3.46	> 100	–	–	0.0432	0.194	0.417	> 100
O=C(Nc1ccc(-n2cc(-c3ccncc3)c(-c3ccc(Cl)c(O)c3)n2)cc1)Nc1ccc(Cl)c(C(F)(F)F)c1	1.2	2.79	2.42	7.46	1.57	4.21	2.29	4.96	1.48	3.11	–	–
COCCOc1cnc2ccn([C@H](C)c3nnc4c(F)cc(-c5cnn(C)c5)cn34)c(=O)c2c1	> 100	> 100	> 100	> 100	54.9	> 100	> 100	> 100	> 100	> 100	> 100	> 100
Cn1cc(C2=C(c3cn(CCCCCN)c4ccccc34)C(=O)NC2=O)c2ccccc21	8.62	24.3	6.07	13.4	–	–	14.7	> 25	7.8	> 23.2	9.24	> 25
COc1cc2c(cc1O)C1Cc3ccc(OC)c(O)c3C(C2)N1C (stereo not given)	–	> 100	–	> 100	–	> 100	–	> 100	–	> 100	–	> 100
O=C(COc1ccc(/C=C2\CSc3ccccc3C2=O)cc1)Nc1nccs1	–	–	–	–	0.026	9.46	1.38	2.67	2.17	4.25	2.13	6.7
COc1ccc2c(c1)[C@@]13CCCC[C@H]1[C@@H](C2)N(C)CC3=O	–	31.4	–	> 100	–	28.4	–	32.8	–	32.9	–	96.8
O=C(/C=C/c1cc(CN2CCOCC2)c(O)c2ncccc12)c1cc(CN2CCOCC2)c(O)c2ncccc12	0.0287	16.9	0.0309	–	0.0292	0.525	0.0682	> 66.6	0.0535	> 100	0.0222	> 100
N#CC(=NCCO)C1=C(O)c2ccccc2C1=O	–	> 100	–	> 100	–	> 100	–	> 100	–	> 100	–	> 100
